The target in one test is TakA (Rv1044), MBP-TakA (Mycobacterium tuberculosis, UniProt P96357).
The next test deals with TglT (Rv1045) (Mycobacterium tuberculosis, UniProt P96356).
Chain of TglT (Rv1045) (P96356 1-293 limits assumed): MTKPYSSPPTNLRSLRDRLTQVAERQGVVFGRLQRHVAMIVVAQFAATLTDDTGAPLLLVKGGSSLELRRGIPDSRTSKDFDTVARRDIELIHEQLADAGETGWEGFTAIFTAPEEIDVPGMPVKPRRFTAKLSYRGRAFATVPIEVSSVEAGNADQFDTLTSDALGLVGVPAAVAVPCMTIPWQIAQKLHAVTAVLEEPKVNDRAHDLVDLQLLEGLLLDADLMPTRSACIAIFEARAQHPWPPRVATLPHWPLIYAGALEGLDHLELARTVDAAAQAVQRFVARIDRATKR

Chain of TakA (Rv1044), MBP-TakA (P96357 entry or part of it): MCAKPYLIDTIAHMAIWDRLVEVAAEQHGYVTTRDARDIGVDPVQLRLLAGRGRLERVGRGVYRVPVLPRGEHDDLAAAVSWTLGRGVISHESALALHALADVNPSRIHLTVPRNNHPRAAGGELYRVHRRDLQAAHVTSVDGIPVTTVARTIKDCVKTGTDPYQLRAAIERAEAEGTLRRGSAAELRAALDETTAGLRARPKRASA

`Nc1ncnc2c1ncn2[C@@H]1O[C@H](COP(=O)(O)OP(=O)(O)OP(=O)(O)O)[C@@H](O)[C@H]1O` [ATP]: the “in vitro kinase assay, 32P transfer to TglT, SDS-PAGE” value at TakA (Rv1044), MBP-TakA is “When incubating MBP-TakA with TglT (Fig. 5a), we detected radioactively labeled TglT species in SDS-PAGE”.
`Nc1nc2c(ncn2[C@@H]2O[C@H](COP(=O)(O)OP(=O)(O)OP(=O)(O)O)[C@@H](O)[C@H]2O)c(=O)[nH]1` [GTP]: on TglT (Rv1045), the “native-PAGE autoradiography with unlabelled NTP competition” value is reported as “We conclude that TglT specifically binds GTP”.

Source of the values: PMC7205606, “Characterization of a toxin-antitoxin system in Mycobacterium tuberculosis suggests neutralization by phosphorylation as the antitoxicity mechanism” (Communications Biology, 2020).
